Test results from patent US9265816B2, “Immunogenic WT-1 peptides and methods of use thereof” (priority 2006, dated 2016).
One block for each compound: values may come before it. Residues, ends and D or L forms follow the SMILES beside them.

Tests used:
[1] = test system: 697 (WT1+ leukemia cell line); type: cell-based, human
Protocol: FIG. 9, left panel. […] CD8^+ T cells were incubated with radiolabeled target cells (pulsed or unpulsed 697 (A0201^+, WT1^+) or SKLY16 (A0201+, WT1-) at 3 different E:T ratios: Grey bars 100:1; Black bars 30:1; White bars 10:1. Y axis: percentage of cytotoxicity. X axis: target cell conditions. *-p<0.05 compared to SKLY16 controls at the same E:T ratio. Right panel: CD8+ T cells isolated as described for the left panel were incubated with radiolabeled JMN (solid line A0201+ WT1+) or MeWo (dashed line A0201+, WT1-) target cells at 4 different E:T ratios: Y axis: percentage of cytotoxicity. X axis: E:T ratios. P was <0.001 compared to MeWo controls. The presence of specific CTL was measured in a standard 4 h-chromium release assay. Target cells were pulsed with 10 microgram (mcg)/ml of synthetic peptides overnight at 37° C. and labeled with 300 μCi of Na2^51CrO4 (NEN Life Science Products, Inc., Boston, Mass.). After extensive washing, target cells were incubated with T cells at an E:T ratio ranging from 100:1 to 10:1. […] Supernatant fluids were harvested and radioactivity was measured in a gamma counter. Percent specific lysis was determined from the following formula: 100×[(experimental release minus spontaneous release)/(maximum release minus spontaneous release)]. Maximum release was determined by lysis of radiolabeled targets in 2.5% Triton X-100.

[2] = test system: JMN (WT1+ mesothelioma cell line); type: cell-based, human
Protocol: (§1) FIG. 9, left panel. […] The presence of specific CTL was measured in a standard 4 h-chromium release assay. Target cells were pulsed with 10 microgram (mcg)/ml of synthetic peptides overnight at 37° C. and labeled with 300 μCi of Na2^51CrO4 (NEN Life Science Products, Inc., Boston, Mass.). After extensive washing, target cells were incubated with T cells at an E:T ratio ranging from 100:1 to 10:1. All conditions were performed in triplicate. Plates were incubated for 4 hours at 37° C. in 5% CO2. Supernatant fluids were harvested and radioactivity was measured in a gamma counter. Percent specific lysis was determined from the following formula: 100×[(experimental release minus spontaneous release)/(maximum release minus spontaneous release)]. Maximum release was determined by lysis of radiolabeled targets in 2.5% Triton X-100.

HLA-A0201 = HLA-A0201 (Homo sapiens, UniProt P04439, D140Y/D185E/D98H/E176V/E277Q/G131W/G231S/I119V/I121R/I166T/I218V/L300P/L318F/N151K/N90K/P208A/P217A/Q86G/Q94H/R138H/R169H/T345S); assay: T2 assay for peptide binding and stabilization of HLA A0201 molecules; type: cell-based; settings: Example 1
Protocol: T2 cells (TAP^−, HLA-A0201^+) were incubated overnight at 27° C. at a concentration of 1×10^6 cells/ml in FCS-free RPMI medium supplemented with 5 μg/ml human β2m (Sigma, St Louis, Mo.) in the absence (negative control) or presence of either a positive reference tyrosinase peptide or test peptides at various final concentrations (50, 10, 1, and 0.1 micrograms (μg)/ml). Following a 4-hour incubation with 5 μg/ml brefeldin A (Sigma), T2 cells were labeled for 30 minutes at 4° C. with a saturating concentration of anti-HLA-A2.1 (BB7.2) mAb, then washed twice. Cells were then incubated for 30 minutes, 4° C. with a saturating concentration of FITC-conjugated goat IgG F(ab′)2 anti-mouse Ig (Caltag, San Francisco, Calif.), washed twice, fixed in PBS/1% paraformaldehyde and analyzed using a FACS Calibur® cytofluorometer (Becton Dickinson, Immunocytometry Systems, San Jose, Calif.).
The mean intensity of fluorescence (MIF) observed for each peptide concentration (after dividing by the MIF in the absence of peptide) was used as an indication of peptide binding and expressed as a “fluorescence index.” Stabilization assays were performed similarly. Following initial evaluation of peptide binding at time 0, cells were washed in RPMI complete medium to remove free peptides and incubated in the continuous presence of 0.5 μg/ml brefeldin-A for 2, 4, 6 or 8 hours.
The number of stable peptide-HLA-A2.1 complexes was estimated as described above by immunofluorescence. The half time of complexes is an estimate of the time required for a 50% reduction of the MIF value at time=0.

[3] = test system: MeWo (WT1- melanoma cell line); assay: Chromium 51 cytotoxicity assay; type: cell-based, human
Protocol: as §1

CD3+ T cells [4] = assay: Cross-priming: T cells stimulated with DCs incubated with tumor lysates, IFN-gamma ELISPOT against peptide-pulsed DCs; type: cell-based, human; settings: for experiments in which lysate-stimulated T cells recognized the peptide: WT1 positive tumor lysates, 5 separate donors
Protocol: A CD3^+ in vitro stimulation was performed as described above. 2×10^6 immature DCs were incubated with total cellular lysate from 2×10^6 tumor cells that was previously prepared by 3 freeze/thaw cycles. Following an 18 hour incubation, maturation cytokines were added to the DCs as described above. […] These DCs were exposed to peptide again during the ELISPOT assay as described above.
Total tumor lysates were prepared from 3 different cell lines: 697 (WT1^+, HLA A0201^+), an e1a2 leukemia cell line; JMN (WT1^+, HLA A0201^+) a biphasic mesothelioma cell line, and as a control, MeWo (WT1^−, HLA A0201^+), a malignant melanoma cell line. DCs from healthy A0201^+ donors were incubated for 18 hours with the tumor lysates and used to stimulate autologous CD3^+ T cells. Following 3 stimulations, the T cells were tested for their reactivity to autologous DCs pulsed with the WT1 peptides. […] These experiments were repeated in 5 separate donors.

CD3+ T cells [5] = assay: IFN-gamma ELISPOT of peptide-stimulated T cells from healthy donors with different HLA-DRB1 types; type: cell-based, human; settings: for experiments with peptide specific T cell responses: 7 healthy donors, each a different HLA-DRB1 type, positive/total experiments; for peptide specific CD4 response, IFN-γ ELISPOT: donors with different HLA-DRB1 types, FIG. 5
Protocol: PBMC were Ficoll-purified from blood and resuspended at 5×10^6/ml in Ex-Vivo-150® medium (BioWhittaker, Walkersville, Md.) containing 1% autologous plasma. After a 2-hour incubation at 37° C., the non-adherent fraction was harvested and washed repeatedly with PBS, then resuspended in media containing 1×10^3 IU/ml GM-CSF and 0.0032 IU/ml IL-4. On day 2 and 4, the same media was added as re-feed (i.e., ½ the volume of media, containing enough cytokines for the entire dish, was added). On day 5, 10 μg/ml of peptide was added.
On day 6, a maturation cocktail of cytokines was added, and cells were cultured for another 48 hours. The maturation cocktail consisted of: 4×10^2 IU/ml IL-1-beta, 0.0032 IU/ml IL-4, 1×10^3 IU/ml IL-6, 1×10^3 IU/ml GMCSF, […], and 1 μg/ml PGE2.
On day 7, DC were harvested and washed twice with RPMI, counted, aliquoted and resuspended at 1×10^6/ml in X-vivo 15® media (without serum). Peptides were added to a final concentration of 10 μg/ml, and incubated for 2 h, 37° C. and 5% CO2, gently re-suspending every 15 minutes, then washed twice in HBSS and re-suspended in RPMI+5% autologous plasma at an appropriate concentration depending on the number of effectors isolated in the next step.
In addition, on day 7, additional PBMC were used to generate additional DC and CD3^+ cells. DC were isolated from the adherent fraction and prepared as described above for the second stimulation of the effector cells on day 14. CD3^+ cells were isolated from the non-adherent fraction by negative selection and stimulated with the previously prepared DC by re-suspending the CD3^+ cells at a concentration of 2×10^6 cells/ml in RPMI+5% autologous plasma, and adding DC at an effector:DC ratio of 20:1 and 10 ng/ml IL-15. Cells were then plated in 2 ml and co-incubated at 37° C. and 5% CO2 for 1 week.
On day 14, the CD3^+ cells were stimulated a second time with the second batch of DC in the same manner, except that 1×10^6 cells/ml were mixed with DC at an effector:DC ratio of 50:1. On day 18, the same media was added as re-feed. On day 20, the DC from the previous generation were defrosted and incubated in maturation cytokines in X-vivo 15® media. On day 21, the ELISPOT assay was conducted.
Plates were pre-wet with 30 μl/well 70% alcohol, shaking the plates to ensure coverage of the entire surface area, washed 3 times with 150 μl/well sterile PBS, then incubated overnight at 4° C. with 10 μg/ml coating antibody (anti-INF clone) in PBS, 100 μl/well, wrapped in aluminum foil. Plates were then washed 2 times with 150 μl/well PBS and 1 time with RPMI/10% autologous plasma (AP), then blocked with 150 μl/well RPMI/5% AP for 2 hours at 37° C. PBMC were suspended in RPMI/5% AP at 1×10^6/ml. […]

[6] = human T cells stimulated 2 times with the peptide

Compound: CSCC[C@H](NC(=O)[C@H](Cc1ccc(O)cc1)NC(=O)[C@H](C)NC(=O)[C@H](CCC(N)=O)NC(=O)CNC(=O)[C@@H](N)CO)C(=O)N[C@@H](Cc1ccccc1)C(=O)N1CCC[C@H]1C(=O)N[C@@H](CC(N)=O)C(=O)N[C@@H](C)C(=O)N1CCC[C@H]1C(=O)N[C@@H](Cc1ccc(O)cc1)C(=O)N[C@@H](CC(C)C)C(=O)N1CCC[C@H]1C(=O)N[C@@H](CO)C(=O)N[C@@H](CS)C(=O)N[C@@H](CC(C)C)C(=O)N[C@@H](CCC(=O)O)C(=O)N[C@@H](CO)C(=O)O [Peptide 122A1] (H-SGQAYMFPNAPYLPSCLES-OH)
- A0201+ donors with similar cytotoxicity results [1]: ¾
- cytotoxicity of stimulated CD8+ cells to 697 [1]: stimulated a sufficient number of CD8^+ cells to be cytotoxic to 697
- cytotoxicity of stimulated CD4+ cells [2]: no cytotoxicity

- stability of binding to HLA-A0201 (HLA-A0201): stable binding
Compound: YMFPNAPYL (One or more amino acids changed compared to native peptide sequence) [WT1 A1 (analogue)]
- recognition of MeWo cells by stimulated CD3+ T cells ([3]; MeWo alone or pulsed with WT1 122A1 peptide): not negative control MeWo cells
- lysis of MeWo [3, 6]: 22.2%
- recognition by T cells stimulated with DCs pulsed with 697 tumor lysate (CD3+ T cells [4]; 697 tumor lysate): recognized
- recognition of JMN cells by stimulated CD3+ T cells ([2]; FIG. 9 right panel): recognized JMN cells
- lysis of JMN [2, 6]: 44.8%

- stability of binding to HLA-A0201 (HLA-A0201): stable binding
Compound: YLLPAVPSL (One or more amino acids changed compared to native peptide sequence) [WT1 C1 (analogue)]

Compound: PGCNKRYFKLSHLQMHSRKHTG (listed as Homo sapiens) [Peptide 328]
- experiments with peptide specific T cell responses (CD3+ T cells [5]): 11/15
- peptide specific CD4 response, IFN-γ ELISPOT (CD3+ T cells [5]): stimulated a significant peptide specific CD4 response
- experiments in which lysate-stimulated T cells recognized the peptide (CD3+ T cells [4]): ⅗

Compound: TEYKLVVVGAPGVGKSALTIQ (listed as Homo sapiens) [RAS, reference compound]
- peptide specific CD4 response, IFN-γ ELISPOT (CD3+ T cells [5]): did not produce IFN-γ over background levels

Compound: LVRHHNMHQRNMTKL (listed as Homo sapiens) [Peptide 427]
- experiments in which lysate-stimulated T cells recognized the peptide (CD3+ T cells [4]): all experiments

Compound: RSDELVRHHNMHQRNMTKL (listed as Homo sapiens) [Peptide 423]
- experiments with peptide specific T cell responses (CD3+ T cells [5]): 3/14

- stability of binding to HLA-A0201 (HLA-A0201): stable binding
Compound: YLGEQQYSV (One or more amino acids changed compared to native peptide sequence) [WT1 B (analogue)]
